Laboratory results as given in publication PMC12257073 (Cancer Research Communications, 2025).
“And” between values parts separate entries of the source, which are not always exact repeats. Equal entries are not always repeated. Where two headings read alike, the source gives them in different places.

Key:
[1] = Treatment duration and reasons off treatment
[2] = system: newly diagnosed AML with mutations in TP53 and/or complex karyotype; assay: Overall survival and duration of response (Kaplan–Meier); format: in vivo, human; details: for Response duration: No. of events / Response duration: median (95% CI): patients who achieved CR/CRh/CRi
Experimental: Demographics were summarized by descriptive statistics. Duration of response was calculated from the date when composite CR was achieved to […], censoring patients who remained alive and relapse-free at the time of the last follow-up. OS was calculated from treatment start to all-cause death, censoring patients who were alive at the time of the last follow-up. Kaplan–Meier methodology was used to assess OS and duration of response.

[3] = system: newly diagnosed AML with mutations in TP53 and/or complex karyotype
Experimental: Dose-limiting toxicities (DLT) were evaluated to establish the dose brought forward for an expansion cohort (phase 2).
The primary endpoint was achievement of CR within six cycles of therapy. Secondary endpoints included toxicity, duration of response, OS, and the proportion of eligible patients who effectively transitioned to allogeneic stem cell transplantation. Exploratory endpoints included pharmacokinetics (PK), correlative genetic, and biochemical data; correlations between morphologic remission, spectral flow cytometry, and mutational remission; and duration of remission or survival. […] Adverse events (AE) were graded according to the NCI Common Terminology Criteria for Adverse Events version 4.0 ([27]).
The phase 1b portion of the study used a standard 3 + 3 design with dose-escalation based on DLT. […] In the first stage, if four or more of 12 patients achieved CR, then an additional 21 patients would be enrolled for a total of 33 patients. At the end of the study, if 12 or more of all 33 patients achieved CR, then the null hypothesis would be rejected.

[4] = TP53-mutated patients, TP-0903 + decitabine, n = 20
[5] = TP53-mutated patients, TP-0903 + decitabine
[6] = group 1, TP-0903 37 mg/day + decitabine, n = 15
[7] = group 1, TP-0903 37 mg/day + decitabine
[8] = group 2, TP-0903 25 mg/day + decitabine, n = 12
[9] = group 2, TP-0903 25 mg/day + decitabine
[10] = overall, TP-0903 + decitabine, n = 27
[11] = group 1, 37 mg TP-0903 + decitabine, 15 patients
[12] = group 2, 25 mg TP-0903 + decitabine, 12 patients

CN1CCN(Cc2ccc(Nc3ncc(Cl)c(Nc4ccccc4S(=O)(=O)N(C)C)n3)cc2)CC1.O=C(O)C(O)C(O)C(=O)O.O=C(O)C(O)C(O)C(=O)O [TP-0903, 2-(5-chloro-2-(4-((4-methylpiperazin-1-yl)methyl)phenylamino)pyrimidin-4-yl)amino-N,N-dimethylbenzene-1-sulfonamide di-tartrate salt]
Treatment discontinuation: AEs ([1]; group 1, 37 mg TP-0903 + decitabine): 13% | Off treatment for reason: Adverse event ([1]; group 1, 37 mg, N = 15): 2 (13.3) n (%) | Treatment discontinuation: AEs ([1]; group 2, 25 mg TP-0903 + decitabine): 17% | Off treatment for reason: Adverse event ([1]; group 2, 25 mg, N = 12): 2 (16.7) n (%) | Off treatment for reason: Adverse event ([1]; overall, N = 27): 4 (14.8) n (%) | OS: No. of events (deaths) [2, 4]: 13 | OS: median (95% CI) [2, 4]: 10.0 (2.0–20.6) months | Response duration: No. of events [2, 5]: 6 | Response duration: median (95% CI) [2, 5]: 10.6 (3.3–NE) months | OS: No. of events (deaths) [2, 6]: 10 | OS: median (95% CI) [2, 6]: 7.6 (2.0–20.6) months | Response duration: No. of events [2, 7]: 3 | Response duration: median (95% CI) [2, 7]: 13.8 months and 13.8 (7.3–NE) months | OS: No. of events (deaths) [2, 8]: 7 | OS: median (95% CI) [2, 8]: 7.5 months and 7.5 (1.1 – NE) months | Response duration: No. of events [2, 9]: 5 | Response duration: median (95% CI) [2, 9]: 4.6 months and 4.6 (1.8–NE) months | OS: No. of events (deaths) [2, 10]: 17 | OS: median (95% CI) [2, 10]: 7.6 (3.3–13.4) months | Response duration: No. of events ([2]; overall, TP-0903 + decitabine): 8 | Response duration: median (95% CI) ([2]; overall, TP-0903 + decitabine): 7.3 (3.3–13.8) months | Best response by 6 cycles: CR [3, 4]: 5 (25) no. (%) | Best response by 6 cycles: CRh [3, 4]: 4 (20) no. (%) | Best response by 6 cycles: CRi [3, 4]: 0 (0) no. (%) | Best response by 6 cycles: MLFS [3, 4]: 2 (10) no. (%) | Best response by 6 cycles: NE (not evaluable) [3, 4]: 4 (20) no. (%) | Best response by 6 cycles: SD [3, 4]: 4 (20) no. (%) | Best response by 6 cycles: Treatment failure [3, 4]: 1 (5) no. (%) | Overall composite remission rate (CR/CRh/CRi) [3, 4]: 9 (45, 23.1–68.5) no. (%, 95% CI) | Overall response rate (CR/CRh/CRi/MLFS) [3, 4]: 11 (55, 31.5–76.9) no. (%, 95% CI) | CR in patients without a TP53 mutation ([3]; five patients without a TP53 mutation, TP-0903 + decitabine): none of the five patients without a TP53 mutation achieved CR | Overall composite remission rate (CR/CRi/CRh) ([3]; group 1, 37 mg TP-0903 + decitabine, 5/15): 33.3% | CR rate within six cycles (primary endpoint) [3, 11]: 13.3% and 13% | CRh rate [3, 11]: 20% | MLFS rate [3, 11]: 7% | Stable disease (SD) rate [3, 11]: 33% | Treatment failure rate [3, 11]: 13% | Best response by 6 cycles: CR [3, 6]: 2 (13.3) no. (%) | Best response by 6 cycles: CRh [3, 6]: 3 (20) no. (%) | Best response by 6 cycles: CRi [3, 6]: 0 (0) no. (%) | Best response by 6 cycles: MLFS [3, 6]: 1 (6.7) no. (%) | Best response by 6 cycles: NE (not evaluable) [3, 6]: 2 (13.3) no. (%) | Best response by 6 cycles: SD [3, 6]: 5 (33.3) no. (%) | Best response by 6 cycles: Treatment failure [3, 6]: 2 (13.3) no. (%) | Overall composite remission rate (CR/CRh/CRi) [3, 6]: 5 (33.3, 11.8–61.6) no. (%, 95% CI) | Overall response rate (CR/CRh/CRi/MLFS) [3, 6]: 6 (40, 16.3–67.7) no. (%, 95% CI) | Overall composite remission rate (CR/CRi/CRh) ([3]; group 2, 25 mg TP-0903 + decitabine, 6/12): 50% | CR rate within six cycles (primary endpoint) [3, 12]: 25% | CRh rate [3, 12]: 8% | CRi rate [3, 12]: 17% | MLFS rate [3, 12]: 8% | Patients who stopped treatment within four and 5 days because of AEs [3, 12]: 17% | Stable disease (SD) rate [3, 12]: 25% | Best response by 6 cycles: CR [3, 8]: 3 (25) no. (%) | Best response by 6 cycles: CRh [3, 8]: 1 (8.3) no. (%) | Best response by 6 cycles: CRi [3, 8]: 2 (16.7) no. (%) | Best response by 6 cycles: MLFS [3, 8]: 1 (8.3) no. (%) | Best response by 6 cycles: NE (not evaluable) [3, 8]: 2 (16.7) no. (%) | Best response by 6 cycles: SD [3, 8]: 3 (25) no. (%) | Best response by 6 cycles: Treatment failure [3, 8]: 0 (0) no. (%) | Overall composite remission rate (CR/CRh/CRi) [3, 8]: 6 (50, 21.1–78) no. (%, 95% CI) | Overall response rate (CR/CRh/CRi/MLFS) [3, 8]: 7 (58.3, 27.7–84.8) no. (%, 95% CI) | Best response by 6 cycles: CR [3, 10]: 5 (18.5) no. (%) | Best response by 6 cycles: CRh [3, 10]: 4 (14.8) no. (%) | Best response by 6 cycles: CRi [3, 10]: 2 (7.4) no. (%) | Best response by 6 cycles: MLFS [3, 10]: 2 (7.4) no. (%) | Best response by 6 cycles: NE (not evaluable) [3, 10]: 4 (14.8) no. (%) | Best response by 6 cycles: SD [3, 10]: 8 (29.6) no. (%) | Best response by 6 cycles: Treatment failure [3, 10]: 2 (7.4) no. (%) | Overall composite remission rate (CR/CRh/CRi) [3, 10]: 11 (40.7, 22.4–61.2) no. (%, 95% CI) | Overall response rate (CR/CRh/CRi/MLFS) [3, 10]: 13 (48.2, 28.7–68.1) no. (%, 95% CI) | Overall composite remission rate (CR/CRi/CRh) ([3]; patients with a TP53 mutation (n = 20), irrespective of group, 9/20): 45% | True CR rate ([3]; patients with mutant TP53 who received 25 mg TP-0903 + decitabine, 3 of 9): 33.3%
